According to article PMC4657098, “A Review of the Updated Pharmacophore for the Alpha 5 GABA(A) Benzodiazepine Receptor Model” (International Journal of Medicinal Chemistry, 2015):
pKi: −log10 of the molar value. Read-outs that look alike come from different tables or passages of the source.

Experiments:
[1] = test system: Bz BS of GABA(A) receptors; details: cited from earlier work
[2] = molecular target: T1, α1β3γ2 GABAA/BzR (Homo sapiens, UniProt P14867+P18507); assay: Competition binding to HEK cell membranes, α1β3γ2; set-up: expressed in transfected cells
[3] = molecular target: T2, α2β3γ2 GABAA/BzR (Homo sapiens, UniProt P18507+P47869); assay: Competition binding to HEK cell membranes, α2β3γ2; set-up: expressed in transfected cells
[4] = molecular target: T3, α3β3γ2 GABAA/BzR (Homo sapiens, UniProt P18507+P34903); assay: Competition binding to HEK cell membranes, α3β3γ2; set-up: expressed in transfected cells
[5] = molecular target: T4, α5β3γ2 GABAA/BzR (Homo sapiens, UniProt P18507+P31644); assay: Competition binding to HEK cell membranes, α5β3γ2; set-up: expressed in transfected cells
[6] = molecular target: T5, α6β3γ2 GABAA/BzR (Homo sapiens, UniProt P18507+Q16445); assay: Competition binding to HEK cell membranes, α6β3γ2; set-up: expressed in transfected cells
[7] = molecular target: T6, α4β3γ2 GABAA/BzR (Homo sapiens, UniProt P18507+P48169); details: cited from earlier work
T6 construct: expressed in transfected cells; host or cells: LTK cells (given for XLi-093 only)

[8] = molecular target: T1, α1β3γ2 GABAA/BzR; set-up: expressed in transfected cells; host or cells: LTK cells (given for XLi-093 only); details: cited from earlier work
[9] = molecular target: T2, α2β3γ2 GABAA/BzR; set-up: expressed in transfected cells; host or cells: LTK cells (given for XLi-093 only); details: cited from earlier work
[10] = molecular target: T3, α3β3γ2 GABAA/BzR; set-up: expressed in transfected cells; host or cells: LTK cells (given for XLi-093 only); details: cited from earlier work
[11] = molecular target: T4, α5β3γ2 GABAA/BzR; set-up: expressed in transfected cells; host or cells: LTK cells (given for XLi-093 only); details: read-out: Affinity Ki α5; cited from earlier work
[12] = molecular target: T5, α6β3γ2 GABAA/BzR; set-up: expressed in transfected cells; host or cells: LTK cells (given for XLi-093 only); details: cited from earlier work
[13] = test system: alcohol preferring and HAD rats; details: cited from earlier work
[14] = molecular target: T6, α4β3γ2 GABAA/BzR; assay: biochemical; type: binding; details: Figure 17; read-out: Binding data Ki α4

## CCCOc1ccc2[nH]c3cnc(C(=O)OCC)c(COC)c3c2c1 [6-PBC, 6-(propyloxy)-4-(methoxymethyl)-β-carboline-3-carboxylic acid ethyl ester]
[1]; Supplement Table 1
  modulation: partial agonist
[2]; Ki α1
  pKi: 9.31
[3]; Ki α2
  pKi: 8.92
[4]; Ki α3
  pKi: 8.66
[5]; Ki α5
  pKi: 8.62
[6]; Ki α6
  pKi: 5.87

## CC(C)(C)OC(=O)c1cc2c(cn1)[nH]c1ccc(I)cc12 [29(iodo-βCCt)]
[7]; read-out: Affinity Ki α4
  pKi: < 5.40
[8]; read-out: Affinity Ki α1
  pKi: 7.84
[9]; read-out: Affinity Ki α2
  pKi: 7.35
[10]; read-out: Affinity Ki α3
  pKi: 6.91
[11]
  pKi: 7.19
[12]; read-out: Affinity Ki α6
  pKi: < 5.40

## CCOC(=O)c1cc2c(cn1)[nH]c1ccc(I)cc12 [31(iodo-βCCE)]
[7]; read-out: Affinity Ki α4
  pKi: 6.00
[8]; read-out: Affinity Ki α1
  pKi: 8.32
[9]; read-out: Affinity Ki α2
  pKi: 7.51
[10]; read-out: Affinity Ki α3
  pKi: 7.47
[11]
  pKi: 6.54
[12]; read-out: Affinity Ki α6
  pKi: 6.00

## O=C(OC(C(F)(F)F)C(F)(F)F)c1cc2c(cn1)[nH]c1ccc(I)cc12 [32(WY-B-08)]
[7]; read-out: Affinity Ki α4
  pKi: 5.52
[8]; read-out: Affinity Ki α1
  pKi: 7.11
[9]; read-out: Affinity Ki α2
  pKi: 6.52
[10]; read-out: Affinity Ki α3
  pKi: 6.88
[11]
  pKi: 6.17
[12]; read-out: Affinity Ki α6
  pKi: 5.52

## O=C(OCC(F)(F)F)c1cc2c(cn1)[nH]c1ccc(-c3ccco3)cc12 [34(WYB27-1)]
[7]; read-out: Affinity Ki α4
  pKi: 5.52
[8]; read-out: Affinity Ki α1
  pKi: 7.59
[9]; read-out: Affinity Ki α2
  pKi: 6.84
[10]; read-out: Affinity Ki α3
  pKi: 6.93
[11]
  pKi: 6.90
[12]; read-out: Affinity Ki α6
  pKi: 5.70

## O=C(OCC(F)(F)F)c1cc2c(cn1)[nH]c1ccc(-c3ccccc3)cc12 [38(WYB29-2)]
[7]; read-out: Affinity Ki α4
  pKi: 5.70
[9]; read-out: Affinity Ki α2
  pKi: 6.86
[10]; read-out: Affinity Ki α3
  pKi: 6.90
[11]
  pKi: 6.52
[12]; read-out: Affinity Ki α6
  pKi: 5.70

## CC(C)(C)OC(=O)c1cc2c(cn1)[nH]c1ccc(C#Cc3ccc4[nH]c5cnc(C(=O)OC(C)(C)C)cc5c4c3)cc12 [42(WY-S-2)]
[7]; read-out: Affinity Ki α4
  pKi: < 6.52
[2]; binding to α1 subtypes
  pKi: 7.52
[8]; read-out: Affinity Ki α1
  pKi: 7.52
[9]; read-out: Affinity Ki α2
  pKi: 6.91
[10]; read-out: Affinity Ki α3
  pKi: 7.00
[11]
  pKi: < 6.52
[12]; read-out: Affinity Ki α6
  pKi: < 5.40

## CC(C)(C)OC(=O)c1cc2c(cn1)[nH]c1ccc(C#CC#Cc3ccc4[nH]c5cnc(C(=O)OC(C)(C)C)cc5c4c3)cc12 [43(WY-S-6)]
[7]; read-out: Affinity Ki α4
  pKi: 5.30
[2]; binding to α1 subtypes
  pKi: 6.92
[8]; read-out: Affinity Ki α1
  pKi: 6.92
[9]; read-out: Affinity Ki α2
  pKi: 5.98
[10]; read-out: Affinity Ki α3
  pKi: 5.40
[11]
  pKi: 5.30
[12]; read-out: Affinity Ki α6
  pKi: 5.30

## CC(C)(C)OC(=O)c1cc2c(cn1)[nH]c1ccccc12 [BCCt]
[7]; Figure 33, αxβ3γ2, read-out: Affinity Ki α4
  pKi: 6.00
[13]; alcohol preferring and HAD rats
  rate at which rats self-administrated alcohol: reduce the rate
[13]
  sucrose self-administration: little or no effect
[1]; Supplement Table 1
  modulation: antagonist
[1]
  pharmacological properties compared with classical benzodiazepine receptor antagonists: near GABA neutral antagonists
[2]; Ki α1
  pKi: 10.52
[3]; Ki α2
  pKi: 10.38
[4]; Ki α3
  pKi: 10.46
[5]; Ki α5
  pKi: 7.16
[5]; read-out: Ki α5
  pKi: 6.96
[6]; Ki α6
  pKi: 5.30
[12]; Figure 33, αxβ3γ2, read-out: Affinity Ki α6
  pKi: < 5.30

## CCOC(=O)c1ncn2c1CN=C(c1ccccc1)c1cc(-c3ccccc3)ccc1-2 [DM-I-81 (9)]
[14]
  pKi: < 5.70
[7]; Figure 4, read-out: Ki α4
  pKi: < 5.70
[2]; Figure 17, read-out: Binding data Ki α1
  pKi: < 5.70
[3]; Figure 17, read-out: Binding data Ki α2
  pKi: < 5.70
[4]; Figure 17, read-out: Binding data Ki α3
  pKi: < 5.70
[5]; Figure 17, read-out: Binding data Ki α5
  pKi: 6.75
[6]; Figure 17, read-out: Binding data Ki α6
  pKi: < 5.70
[8]; Figure 4, read-out: Ki α1
  pKi: < 5.70
[9]; Figure 4, read-out: Ki α2
  pKi: < 5.70
[10]; Figure 4, read-out: Ki α3
  pKi: < 5.70
[12]; Figure 4, read-out: Ki α6
  pKi: < 5.70

## CCc1c(C(=O)OC)ncc2[nH]c3cc(OC)c(OC)cc3c12 [DMCM, reference compound]
[1]
  modulation: inverse agonist
[2]; read-out: Ki α1
  pKi: 8.24
[3]; read-out: Ki α2
  pKi: 8.08
[4]; read-out: Ki α3
  pKi: 8.40
[5]; read-out: Ki α5
  pKi: 8.98
[6]; read-out: Ki α6
  pKi: 6.87
